The test relates to proteins that co-immunoprecipitated with DUX4-CTD constructs expressed in MB135 myoblasts. As to the kind of experiment: LC-MS of proteins co-immunoprecipitated with DUX4-CTD (Table 1) and western validation. It counts as binding, human. Details: key to 4. mL1dL2 + Dox + IFNG / 4. + IFNG mix / 4. longCTD + Dox + IFNG / 3. + IFNg + Dox longCTD / 3. + Dox longCTD / 3. + IFNG longCTD: peptide-spectrum matches (PSMs) per protein. Particulars: for 4. longCTD + Dox + IFNG: LC-MS counts of the listed protein co-immunoprecipitated with DUX4-CTD bait longCTD; for 3. + IFNg + Dox longCTD / 3. + Dox longCTD / 3. + IFNG longCTD: bait longCTD; for 3. + IFNg + Dox longCTD: experiment 3, IFNg + Dox; for SUM of PSMS: sum over all samples; for 3. + Dox longCTD: experiment 3, Dox only; for 3. + IFNG longCTD: experiment 3, IFNG only, no doxycycline (bait at background level). The source says:
As an unbiased method to identify proteins that interact with the C-terminal region of DUX4, liquid chromatography mass spectroscopy (LC-MS) was used to identify proteins that co-immunoprecipitated with DUX4-CTD constructs expressed in MB135 myoblasts. In the first experiment, MB135iDUX4-CTD cells were used, either untreated, treated with doxycycline alone, or with both doxycycline and IFNG. In the second experiment, MB135iDUX4-CTD and MB135iDUX4mL1dL2 cells were used, both treated with doxycycline and IFNG, compared to these two cell lines untreated and combined as a control. Proteins with a minimum of 2 peptide spectrum matches (PSMs) in at least one sample that were identified in both experiments were assigned to one of ten categories (see Methods) to separate candidate interactors from other categories that might be co-purified because of obligate interactions (e.g., proteasome or ribosome) or might be less likely to be physiologically relevant (e.g., cytoskeletal proteins). Candidate interactors were then ranked based on the total PSMs for that protein across all samples.
Centrifugation at 2500 rcf at 4° C. for 5 min pelleted the nuclei, supernatant was discarded, and nuclei resuspended in 1 mL IP buffer pH 7.4 (25 mM Tris-HCl pH 7.5, 175 mM NaCl, 1 mM EDTA, 0.2% NP-40, 5% glycerol) and incubated for 1 hour at 4° C. with rotation then spun at 21000 rcf for 10 minutes at 4° C. to pellet insoluble debris. Protein concentration was determined using the Pierce BCA Protein Assay Kit (ThermoFisher, 23225). An equivalent amount of protein per sample was pre-cleared with Dynabeads Protein G (Invitrogen) bound to mouse IgG (Abcam #131368) for 1 hour at 4° C. with rotation. FLAG-tagged constructs were then immunoprecipitated with Dynabeads Protein G beads coupled to mouse anti-FLAG M2 mAb (Sigma F3165) for 3 hours at 4° C. with rotation. Beads were washed 3× with 1 mL IP buffer and eluted by adding 2× NuPage LDS Sample Buffer (Thermo Fisher, diluted from 4× with PBS) to the beads and heating for 10 minutes at 70° C.
For LC-MS, anti-FLAG immunoprecipitation was performed with beads cross-linked to the anti-FLAG antibody and the proteins competitively eluted with FLAG peptide. Eluted protein samples were electrophoresed into a NuPage 4-12% Bis-Tris gel, excised, and processed by the Fred Hutchinson Cancer Research Center Proteomics Core. Samples were reduced, alkylated, digested with trypsin, desalted, and run on the Orbitrap Eclipse Tribid Mass Spectrometer (Thermo Fisher). Proteomics data were analyzed using Proteome Discoverer 2.4 against a Uniprot human database that included common contaminants using Sequest HT and Percolator for scoring. […] Proteins that were identified in at least one sample from both independent experiments with at least 2 PSMs in one sample were assigned to one of ten categories: 1, candidates; 2, cytoskeletal associated; 3, cytoskeletal; 4, ribosome/translation associated; 5, proteasome associated; 6, membrane or extracellular; ER, golgi, or vesicle associated; 8, lipid metabolism; 9, chaperones; 10, nuclear import or nuclear membrane associated. The proteins in category 1 were further investigated for interactions with DUX4.

[1] abbreviates: LC-MS value per protein co-immunoprecipitated with DUX4-CTD construct mL1dL2 in MB135 myoblasts, + Dox + IFNG, kind of count not given.
Setting [2] is: LC-MS counts of the listed protein co-immunoprecipitated with DUX4-CTD bait mL1dL2, experiment 4, Dox + IFNG.
[3] abbreviates: LC-MS value per protein co-immunoprecipitated from MB135 myoblasts, + IFNG mix sample (no Dox), kind of count not given.

Consider XRCC5, for which the “4. mL1dL2 + Dox + IFNG” value under setting [1] was determined as 1.

Turning to P50990, the “3. + IFNg + Dox longCTD” value turned out to be 2 and the “SUM of PSMS” value was 6. In addition, where the note is “experiment 4, Dox + IFNG”, the “4. longCTD + Dox + IFNG” value stood at 3. Moreover, the “4. mL1dL2 + Dox + IFNG” value under setting [2] is 1.

For P52294, the “3. + Dox longCTD” value is on record as 4, the “3. + IFNg + Dox longCTD” value is 8 and the “SUM of PSMS” value was found to be 15. In addition, the “4. longCTD + Dox + IFNG” value (experiment 4, Dox + IFNG) is reported as 2. Also, the “4. mL1dL2 + Dox + IFNG” value under setting [2] came out at 1.

With STK38, the “4. + IFNG mix” value under setting [3] is 4.

On to P16989, for which the “3. + Dox longCTD” value came to 1, the “3. + IFNg + Dox longCTD” value amounted to 3 and the “SUM of PSMS” value worked out at 11.

For P08670, the “3. + Dox longCTD” value is 42, the “3. + IFNG longCTD” value amounted to 39, the “3. + IFNg + Dox longCTD” value turned out to be 45 and the “SUM of PSMS” value came to 290. Moreover, the “4. longCTD + Dox + IFNG” value (experiment 4, Dox + IFNG) turned out to be 55.

In the case of P30153, the “3. + Dox longCTD” value came to 5, the “3. + IFNG longCTD” value amounted to 2, the “3. + IFNg + Dox longCTD” value was 14 and the “SUM of PSMS” value turned out to be 28. The “4. longCTD + Dox + IFNG” value (experiment 4, Dox + IFNG) was 2.

Consider ENO1, for which, under setting [3], the “4. + IFNG mix” value came to 6. Under setting [1], the “4. mL1dL2 + Dox + IFNG” value was determined as 3.

For the substance Q15149, the “3. + Dox longCTD” value is 5, the “3. + IFNg + Dox longCTD” value amounted to 21 and the “SUM of PSMS” value was 52. Further, where the note is “experiment 4, Dox + IFNG”, the “4. longCTD + Dox + IFNG” value turned out to be 7.

P17661: the “3. + Dox longCTD” value is 9, the “3. + IFNG longCTD” value came to 14, the “3. + IFNg + Dox longCTD” value stood at 15 and the “SUM of PSMS” value was 84. Also, the “4. longCTD + Dox + IFNG” value (experiment 4, Dox + IFNG) is reported as 12.

Consider HNRNPK, for which, under setting [3], the “4. + IFNG mix” value is reported as 3. Besides, the “4. mL1dL2 + Dox + IFNG” value under setting [1] is reported as 12.

For the substance PSMD2, the “4. + IFNG mix” value under setting [3] is 1. In addition, under setting [1], the “4. mL1dL2 + Dox + IFNG” value worked out at 3.

YBX3: the “4. mL1dL2 + Dox + IFNG” value under setting [1] was determined as 7.

For the substance P11142, the “3. + Dox longCTD” value is listed as 27, the “3. + IFNG longCTD” value is 2, the “3. + IFNg + Dox longCTD” value is recorded as 54 and the “SUM of PSMS” value was 299. Further, for the setting “experiment 4, Dox + IFNG”, the “4. longCTD + Dox + IFNG” value is 105. Moreover, under setting [2], the “4. mL1dL2 + Dox + IFNG” value was 90. The “4. + IFNG mix” value (LC-MS counts of the listed protein in anti-FLAG co-IP, experiment 4, IFNG, no doxycycline, mix, MB135 myoblasts) worked out at 21.

Consider Q13283, for which the “3. + Dox longCTD” value is given as 1, the “3. + IFNg + Dox longCTD” value is reported as 2 and the “SUM of PSMS” value was 7. Also, where the note is “experiment 4, Dox + IFNG”, the “4. longCTD + Dox + IFNG” value is reported as 2.

COL1A2: the “4. + IFNG mix” value under setting [3] worked out at 2.

As for PABPC1, under setting [1], the “4. mL1dL2 + Dox + IFNG” value was 5.

On to STAT3, for which the “4. mL1dL2 + Dox + IFNG” value under setting [1] amounted to 1.

Take NES: the “4. + IFNG mix” value under setting [3] is listed as 6. Further, under setting [1], the “4. mL1dL2 + Dox + IFNG” value was determined as 1.

With Q09666, the “3. + Dox longCTD” value was determined as 8, the “3. + IFNg + Dox longCTD” value came to 4 and the “SUM of PSMS” value came to 14. For the setting “experiment 4, Dox + IFNG”, the “4. longCTD + Dox + IFNG” value is given as 1.

For P35579, the “3. + Dox longCTD” value was determined as 122, the “3. + IFNG longCTD” value is reported as 8, the “3. + IFNg + Dox longCTD” value amounted to 242 and the “SUM of PSMS” value came to 387. In addition, under “experiment 4, Dox + IFNG”, the “4. longCTD + Dox + IFNG” value is given as 4.

As for USP9X, the “4. mL1dL2 + Dox + IFNG” value under setting [1] is given as 7.
